# Laboratory results taken from patent US12661410B2, “Compounds for targeted degradation of RET” (C4 Therapeutics, Inc., priority 2020, dated 2026).
# Substitutions are numbered along the chain they refer to. Read-outs that look alike come from different tables or passages of the source.
# Assays:
# RET(KD: 658-1114 G810R) = biological target: T1, RET(KD: 658-1114 G810R) (Homo sapiens, UniProt P07949, G810R); assay: HiBiT-Degradation, RET G810R degradation assay (Nano-Glo HiBiT Lytic), 293T.165 cells; type: cell-based; conditions: for Emax / DC50: 6.0 hours
# T1 construct: 658-1114; expressed in transfected cells; host or cells: 293T.165 (293T cells, generated in-house)
# T1 sequence (P07949 658-1114 G810R): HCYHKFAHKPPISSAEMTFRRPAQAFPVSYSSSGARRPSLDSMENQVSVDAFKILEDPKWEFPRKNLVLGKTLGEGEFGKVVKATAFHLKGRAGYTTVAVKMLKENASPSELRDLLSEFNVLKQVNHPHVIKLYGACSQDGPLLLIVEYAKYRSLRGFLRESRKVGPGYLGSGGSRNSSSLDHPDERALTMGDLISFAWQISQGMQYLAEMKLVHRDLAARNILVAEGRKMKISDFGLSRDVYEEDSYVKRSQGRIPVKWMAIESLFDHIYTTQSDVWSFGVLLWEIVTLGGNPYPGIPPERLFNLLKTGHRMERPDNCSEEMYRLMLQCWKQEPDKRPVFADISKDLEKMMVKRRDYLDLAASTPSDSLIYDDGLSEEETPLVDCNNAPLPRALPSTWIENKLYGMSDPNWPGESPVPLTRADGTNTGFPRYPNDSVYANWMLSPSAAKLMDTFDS
# Procedure, shortened: (§1)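 HEK293T lines expressing HiBiT-tagged RET kinase domain, wild-type (293T.144) or G810R (293T.165), treated 6 h in duplicate, 11-point half-log series from 10 μM top. Lytic HiBiT luminescence read; DC50 and Emax (% protein remaining) from dose-response curves.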
# RET (658-1114) = biological target: T2, RET (658-1114) (Homo sapiens, UniProt P07949); assay: HiBiT-Degradation, RET wild-type degradation assay (Nano-Glo HiBiT Lytic), 293T.144 cells; type: cell-based; conditions: for DC50 / Emax: 6.0 hours
# T2 construct: 658-1114; expressed in transfected cells; host or cells: 293T.144 (293T cells, generated in-house)
# T2 sequence (P07949 658-1114): T1 sequence (P07949 658-1114 G810R) with R153G
# Procedure, shortened: as §1
# [1] = % remaining protein, read-out: 293T.165 RET(KD: 658-1114 G810R) 6.0 hours (Emax)
# [2] = half-maximal degradation concentration, read-out: 293T.165 RET(KD: 658-1114 G810R) 6.0 hours (DC50)
# [3] = HiBiT-Degradation, read-out: 293T.165 RET(KD: 658-1114 G810R) 6.0 hours (DC50)
# [4] = HiBiT-Degradation, read-out: 293T.144 RET (658-1114) 6.0 hours (DC50)
# [5] = HiBiT-Degradation, read-out: 293T.144 RET (658-1114) 6.0 hours (Emax)
# [6] = RET G810R, read-out: HiBiT-Degradation 293T.165 RET(KD: 658-1114 G810R) 6.0 hours (DC50)
# [7] = RET G810R, read-out: HiBiT-Degradation 293T.165 RET(KD: 658-1114 G810R) 6.0 hours (Emax)
# [8] = RET wild-type, read-out: HiBiT-Degradation 293T.144 RET (658-1114) 6.0 hours (DC50)
# [9] = RET wild-type, read-out: HiBiT-Degradation 293T.144 RET (658-1114) 6.0 hours (Emax)
# [10] = % remaining protein, read-out: 293T.144 RET (658-1114) 6.0 hours (Emax)
# [11] = half-maximal degradation concentration, read-out: 293T.144 RET (658-1114) 6.0 hours (DC50)
SMILES,Emax (RET(KD: 658-1114 G810R); [1]),DC50 (RET(KD: 658-1114 G810R); [2]),293T.165 RET(KD: 658-1114 G810R) 6.0 hours (Emax) (RET(KD: 658-1114 G810R); HiBiT-Degradation),293T.165 RET(KD: 658-1114 G810R) 6.0 hours (IP) [nM] (RET(KD: 658-1114 G810R); HiBiT-Degradation),DC50 (RET(KD: 658-1114 G810R); [3]),293T.144 RET (658-1114) 6.0 hours (IP) [nM] (RET (658-1114); HiBiT-Degradation),DC50 (RET (658-1114); [4]),Emax (RET (658-1114); [5]),HiBiT-Degradation 293T.165 RET(KD: 658-1114 G810R) 6.0 hours (IP) [nM] (RET(KD: 658-1114 G810R); RET G810R),DC50 (RET(KD: 658-1114 G810R); [6]),Emax (RET(KD: 658-1114 G810R); [7]),HiBiT-Degradation 293T.144 RET (658-1114) 6.0 hours (IP) [nM] (RET (658-1114); RET wild-type),DC50 (RET (658-1114); [8]),Emax (RET (658-1114); [9]),293T.165 RET(KD: 658-1114 G810R) 6.0 hours (IP) [nM] (RET(KD: 658-1114 G810R)),293T.144 RET (658-1114) 6.0 hours (IP) [nM] (RET (658-1114)),Emax (RET (658-1114); [10]),DC50 (RET (658-1114); [11])
"CCC1(C(=O)NC(C)C)CCN(c2ccc(-c3nc(-c4cnn(C5CCN(C(=O)CC6(O)CCN(c7ccc(NC8CCC(=O)NC8=O)cc7F)CC6)CC5)c4)cn4ncc(C#N)c34)cn2)CC1 (centres unmarked) [Compound 30, 1-(5-(3-Cyano-6-(1-(1-(2-(1-(4-((2,6-dioxopiperidin-3-yl)amino)-2-fluorophenyl)-4-hydroxypiperidin-4-yl)acetyl)piperidin-4-yl)-1H-pyrazol-4-yl)pyrazolo[1,5-a]pyrazin-4-yl)pyridin-2-yl)-4-ethyl-N-isopropylpiperidine-4-carboxamide]",< 50%,< 50 nM,+++ (<50% = +++),++++ (< 50 nM = ++++),< 50 nM,++++ (< 50 nM = ++++),< 50 nM,< 30%,–,–,–,–,–,–,–,–,–,–
"CCC1(c2ccccn2)CCN(c2ccc(-c3nc(-c4cnn(C5CCN(C(=O)CN6CCC(c7ccc(NC8CCC(=O)NC8=O)cc7F)CC6)CC5)c4)cn4ncc(C#N)c34)cn2)CC1 (centres unmarked) [Compound 110, 6-[1-[1-[2-[4-[4-[(2,6-dioxo-3-piperidyl)amino]-2-fluoro-phenyl]-1-piperidyl]acetyl]-4-piperidyl]pyrazol-4-yl]-4-[6-[4-ethyl-4-(2-pyridyl)-1-piperidyl]-3-pyridyl]pyrazolo[1,5-a]pyrazine-3-carbonitrile]",< 30%,< 100 nM,–,–,–,–,–,–,–,–,–,–,–,–,+++ (<100 nM = +++),++++ (<50 nM = ++++),< 30%,< 50 nM
"CCC1(C(=O)NC2CCC2)CCN(c2ccc(-c3nc(-c4cnn([C@H]5CC[C@H](N6CCN(c7cc(OC)c(N[C@@H]8CCC(=O)NC8=O)cc7F)CC6)CC5)c4)cn4ncc(C#N)c34)cn2)CC1 (single isomer, unassigned) [Compound 135]",< 30%,< 50 nM,–,–,–,–,–,–,–,–,–,–,–,–,++++ (<50 nM = ++++),++++ (<50 nM = ++++),< 30%,< 50 nM
"N#Cc1cnn2cc(-c3cnn(C4CCN(C(=O)CN5CCC(c6ccc(NC7CCC(=O)NC7=O)cc6F)CC5)CC4)c3)cc(-c3ccc(N4CC5CC(C4)N5Cc4cccnc4)nc3)c12 (centres unmarked) [Compound 68, 6-[1-[1-[2-[4-[4-[(2,6-dioxo-3-piperidyl)amino]-2-fluoro-phenyl]-1-piperidyl]acetyl]-4-piperidyl]pyrazol-4-yl]-4-[6-[6-(3-pyridylmethyl)-3,6-diazabicyclo[3.1.1]heptan-3-yl]-3-pyridyl]pyrazolo[1,5-a]pyridine-3-carbonitrile]",< 30%,< 50 nM,–,–,–,–,–,–,++++ (< 50 nM = ++++),< 50 nM,< 30%,++++ (< 50 nM = ++++),< 50 nM,< 30%,–,–,–,–

# Second part, the compound after the results:
Emax (RET(KD: 658-1114 G810R); [1]),DC50 (RET(KD: 658-1114 G810R); [2]),293T.165 RET(KD: 658-1114 G810R) 6.0 hours (Emax) (RET(KD: 658-1114 G810R); HiBiT-Degradation),293T.165 RET(KD: 658-1114 G810R) 6.0 hours (IP) [nM] (RET(KD: 658-1114 G810R); HiBiT-Degradation),DC50 (RET(KD: 658-1114 G810R); [3]),293T.144 RET (658-1114) 6.0 hours (IP) [nM] (RET (658-1114); HiBiT-Degradation),DC50 (RET (658-1114); [4]),Emax (RET (658-1114); [5]),HiBiT-Degradation 293T.165 RET(KD: 658-1114 G810R) 6.0 hours (IP) [nM] (RET(KD: 658-1114 G810R); RET G810R),DC50 (RET(KD: 658-1114 G810R); [6]),Emax (RET(KD: 658-1114 G810R); [7]),HiBiT-Degradation 293T.144 RET (658-1114) 6.0 hours (IP) [nM] (RET (658-1114); RET wild-type),DC50 (RET (658-1114); [8]),Emax (RET (658-1114); [9]),293T.165 RET(KD: 658-1114 G810R) 6.0 hours (IP) [nM] (RET(KD: 658-1114 G810R)),293T.144 RET (658-1114) 6.0 hours (IP) [nM] (RET (658-1114)),Emax (RET (658-1114); [10]),DC50 (RET (658-1114); [11]),SMILES
< 50%,< 100 nM,+++ (<50% = +++),+++ (<100 nM = +++),< 100 nM,++++ (< 50 nM = ++++),< 50 nM,< 30%,–,–,–,–,–,–,–,–,–,–,"Cn1nc(N2CCC(=O)NC2=O)c2ccc(C3CCN(CC(=O)N4CCN(c5ccc(-c6cc(-c7ccc(N8CCN(Cc9ccccn9)CC8)nc7)c7c(C#N)cnn7c6)cc5)CC4)CC3)cc21 [Compound 65, 6-[4-[4-[2-[4-[3-(2,4-dioxohexahydropyrimidin-1-yl)-1-methyl-indazol-6-yl]-1-piperidyl]acetyl]piperazin-1-yl]phenyl]-4-[6-[4-(2-pyridylmethyl)piperazin-1-yl]-3-pyridyl]pyrazolo[1,5-a]pyridine-3-carbonitrile]"
< 50%,< 100 nM,+++ (<50% = +++),++++ (< 50 nM = ++++),< 100 nM,++++ (< 50 nM = ++++),< 50 nM,< 30%,–,–,–,–,–,–,–,–,–,–,"N#Cc1cnn2cc(-c3cnn(C4CCN(C(=O)CN5CCC(c6ccc(NC7CCC(=O)NC7=O)cc6F)CC5)CC4)c3)cc(-c3ccc(N4CCC(Nc5ccccc5)CC4)nc3)c12 (centres unmarked) [Compound 46, 4-[6-(4-anilino-1-piperidyl)-3-pyridyl]-6-[1-[1-[2-[4-[4-[(2,6-dioxo-3-piperidyl)amino]-2-fluoro-phenyl]-1-piperidyl]acetyl]-4-piperidyl]pyrazol-4-yl]pyrazolo[1,5-a]pyridine-3-carbonitrile]"
< 30%,< 100 nM,–,–,–,–,–,–,++++ (< 50 nM = ++++),< 100 nM,< 30%,++++ (< 50 nM = ++++),< 50 nM,< 30%,–,–,–,–,"COCC1(Cc2ccccn2)CCN(c2ccc(-c3nc(-c4cnn(C5CCN(C(=O)CN6CCC(c7ccc(NC8CCC(=O)NC8=O)cc7F)CC6)CC5)c4)cn4ncc(C#N)c34)cn2)CC1 (centres unmarked) [Compound 78, 6-[1-[1-[2-[4-[4-[(2,6-dioxo-3-piperidyl)amino]-2-fluoro-phenyl]-1-piperidyl]acetyl]-4-piperidyl]pyrazol-4-yl]-4-[6-[4-(methoxymethyl)-4-(2-pyridylmethyl)-1-piperidyl]-3-pyridyl]pyrazolo[1,5-a]pyrazine-3-carbonitrile]"
< 30%,< 50 nM,–,–,–,–,–,–,–,–,–,–,–,–,++++ (<50 nM = ++++),++++ (<50 nM = ++++),< 30%,< 50 nM,"CCC1(C(=O)NC2CCC2)CCN(c2ccc(-c3nc(-c4cnn([C@H]5CC[C@H](N6CCN(c7c(F)cc(N[C@H]8CCC(=O)NC8=O)cc7F)CC6)CC5)c4)cn4ncc(C#N)c34)cn2)CC1 (single isomer, unassigned) [Compound 136]"
< 50%,< 1000 nM,–,–,–,–,–,–,++++ (< 50 nM = ++++),< 1000 nM,< 50%,++++ (< 50 nM = ++++),< 50 nM,< 30%,–,–,–,–,"CCC1(C(=O)NC(C)C)CCN(c2ccc(-c3cc(-c4cnn([C@H]5CC[C@@H](N6CCC(c7ccc(NC8CCC(=O)NC8=O)cc7F)CC6)CC5)c4)cn4ncc(C#N)c34)cn2)CC1 (some centres unmarked) [Compound 88, 1-(5-(3-cyano-6-(1-((1s, 4s)-4-(4-(4-((2,6-dioxopiperidin-3-yl)amino)-2-fluorophenyl)piperidin-1-yl)cyclohexyl)-1H-pyrazol-4-yl)pyrazolo[1,5-a]pyridin-4-yl)pyridin-2-yl)-4-ethyl-N-isopropylpiperidine-4-carboxamide]"
< 30%,< 50 nM,++++ (< 30% = ++++),++++ (< 50 nM = ++++),< 50 nM,++++ (< 50 nM = ++++),< 50 nM,< 30%,–,–,–,–,–,–,–,–,–,–,"N#Cc1cnn2cc(-c3ccc(N4CCN(C(=O)CN5CCC(c6ccc(NC7CCC(=O)NC7=O)cc6)CC5)CC4)cc3)cc(-c3ccc(N4CC5CC5C4)nc3)c12 (centres unmarked) [Compound 17, 4-[6-(3-azabicyclo[3.1.0]hexan-3-yl)-3-pyridyl]-6-[4-[4-[2-[4-[4-[(2,6-dioxo-3-piperidyl)amino]phenyl]-1-piperidyl]acetyl]piperazin-1-yl]phenyl]pyrazolo[1,5-a]pyridine-3-carbonitrile]"
